Like-named read-outs stand apart in the source and are kept apart here.
Experiments:
[1] = In vitro metabolic stability in hepatic microsomes; format: in vitro ADME, rat; conditions: for % Remaining after 10 min incubation with liver microsomes: NADPH, compound 5 μM; for % Remaining: parent molecule after 30 min incubation with rat liver microsomes; for metabolic stability (in words): hepatic microsomes
Procedure: Compounds, each at 5 μM, were incubated for specified times at 37° C. with rat liver microsomes (1 mg protein/ml; Sigma-Aldrich, St. Louis, Mo.) in potassium phosphate buffer (100 mM) containing 1 mM NADPH. The mixture was then chilled on ice, and 0.5 ml of ice-cold ethyl acetate was added.

UT-B = target: T1, UT-B (Mus musculus, UniProt Q8VHL0); test: Erythrocyte lysis assay of UT-B inhibition; format: cell-based; set-up: Screening was performed using mouse erythrocytes, which strongly express UT-B; endogenous in cells; host or cells: erythrocytes in whole blood of wild-type CD1 mice; conditions: read-out: IC50
T1 sequence (Q8VHL0 1-384): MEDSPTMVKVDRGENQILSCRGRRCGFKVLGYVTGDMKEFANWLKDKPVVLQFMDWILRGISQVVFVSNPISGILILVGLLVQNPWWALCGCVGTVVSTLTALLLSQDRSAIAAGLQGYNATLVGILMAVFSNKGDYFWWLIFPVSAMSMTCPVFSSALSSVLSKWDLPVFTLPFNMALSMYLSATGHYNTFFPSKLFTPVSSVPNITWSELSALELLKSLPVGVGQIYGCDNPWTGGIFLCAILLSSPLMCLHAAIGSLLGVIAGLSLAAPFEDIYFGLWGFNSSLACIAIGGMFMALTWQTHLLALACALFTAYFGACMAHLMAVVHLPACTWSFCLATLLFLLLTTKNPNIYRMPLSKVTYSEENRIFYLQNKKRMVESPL
Procedure: Screening was performed using mouse erythrocytes, which strongly express UT-B and are highly water permeable because the cells also express aquaporin-1 (AQP1) water channels. The screening method involved assay of erythrocyte lysis in response to a large, outwardly directed gradient of acetamide, a urea analog that is transported efficiently by UT-B. A large, outwardly directed gradient of acetamide causes transient cell swelling, but little cell lysis, because UT-B-facilitated acetamide efflux limits water influx (see FIG. 1A). UT-B inhibition prevents acetamide efflux, allowing unopposed cell swelling and consequent cell lysis, which was recorded by reduced near-infrared light absorption at 710 nm.
Primary screening was done using a collection of 100,000 diverse, drug-like compounds from commercial sources (ChemDiv, San Diego, Calif.; Asinex, Winston-Salem, N.C.). […] Vigorous mixing was achieved by repeated pipetting. Erythrocyte lysis was quantified by absorbance at 710 nm wavelength, made within 5 min after hypo-osmolar shock. […] For analysis of structure-activity relationships >900 commercially available analogs (ChemDiv and Asinex) were tested.

[2] = Table 1, commercially available analogues, erythrocyte lysis assay
[3] = Table 2, synthesized inhibitors, red blood cell lysis assay (n = 3), single-site saturation model

Compound	% Remaining after 10 min incubation with liver microsomes [1] [%]	IC50 (UT-B; [2]) [nM]	IC50 (UT-B; erythrocyte lysis assay) [nM]	% Remaining [1] [%]	IC50 (UT-B; [3]) [nM]	metabolic stability (in words) [1]
CCc1ccc(S(=O)(=O)c2nnn3c2nc(NCC2CCCO2)c2sccc23)cc1 (centres unmarked) [Compound 2bu, tetrahydrofuran-2-ylmethyl-[3-(4-ethyl-benzenesulfonyl)-thieno[2,3-e][1,2,3]triazolo[1,5-a]pyrimidin-5-yl]-amine]	26	891	–	–	–	–
CCc1ccc(S(=O)(=O)c2nnn3c2nc(NCCC(C)C)c2sccc23)cc1 [Compound 2bv]	59	662	–	–	–	–
CCc1ccc(S(=O)(=O)c2nnn3c2nc(NC(C)c2ccccc2)c2sccc23)cc1 (centres unmarked) [Compound 2bw, [3-(4-ethyl-benzenesulfonyl)-thieno[2,3-e][1,2,3]triazolo[1,5-a]pyrimidin-5-yl]-(1-phenyl-1-methyl)methyl-amine]	34	585	–	–	–	–
CCc1ccc(S(=O)(=O)c2nnn3c2nc(NCc2cccc(OC)c2)c2sccc23)cc1 [Compound 2bx, [3-(4-ethyl-benzenesulfonyl)-thieno[2,3-e][1,2,3]triazolo[1,5-a]pyrimidin-5-yl]-(3-methoxy-benzyl)-amine]	<2	291	–	–	–	–
CCc1ccc(S(=O)(=O)c2nnn3c2nc(NCCOC)c2sccc23)cc1 [Compound 2by, {3-[4-ethyl-benzenesulfonyl]-thieno[2,3-e][1,2,3]triazolo[1,5-a]pyrimidin-5-yl}-2-methoxyethyl-amine]	<2	334	–	–	–	–
CCc1ccc(S(=O)(=O)c2nnn3c2nc(NCc2ccc(F)cc2)c2sccc23)cc1 [Compound 2ca, [3-(4-ethyl-benzenesulfonyl)-thieno[2,3-e][1,2,3]triazolo[1,5-a]pyrimidin-5-yl]-(4-fluoro-benzyl)-amine]	41	384	–	–	–	–
CCc1ccc(S(=O)(=O)c2nnn3c2nc(NCCCOC)c2sccc23)cc1 [Compound 2cb, {3-[4-ethyl-benzenesulfonyl]-thieno[2,3-e][1,2,3]triazolo[1,5-a]pyrimidin-5-yl}-3-methoxypropyl-amine]	<2	–	212	–	–	–
CCc1ccc(S(=O)(=O)c2nnn3c2nc(NC(C)C)c2sccc23)cc1 [Compound 2ce]	4	948	–	–	–	–
CCc1ccc(S(=O)(=O)c2nnn3c2nc(NCCCOC(C)C)c2sccc23)cc1 [Compound 2cf, {3-[4-ethyl-benzenesulfonyl]-thieno[2,3-e][1,2,3]triazolo[1,5-a]pyrimidin-5-yl}-3-(1-methylethoxyl)propyl-amine]	<2	433	–	–	–	–
CCc1ccc(S(=O)(=O)c2nnn3c2nc(NCCCN2CCCC2=O)c2sccc23)cc1 [Compound 2cg]	2	1500	–	–	–	–
Cc1ccc(C)c(S(=O)(=O)c2nnn3c2nc(NCCC(C)C)c2sccc23)c1 [Compound 2cj]	61	1450	–	–	–	–
CCCCNc1nc2c(S(=O)(=O)c3cc(C)ccc3C)nnn2c2ccsc12 [Compound 2cn]	57	865	–	–	–	–
COCCNc1nc2c(S(=O)(=O)c3cc(C)ccc3C)nnn2c2ccsc12 [Compound 2co, {3-[2,5-dimethyl-benzenesulfonyl]-thieno[2,3-e][1,2,3]triazolo[1,5-a]pyrimidin-5-yl}-2-methoxyethyl-amine]	29	1190	–	–	–	–
COCCCNc1nc2c(S(=O)(=O)c3cc(C)ccc3C)nnn2c2ccsc12 [Compound 2cr, {3-[2,5-dimethyl-benzenesulfonyl]-thieno[2,3-e][1,2,3]triazolo[1,5-a]pyrimidin-5-yl}-3-methoxypropyl-amine]	26	1400	–	–	–	–
COCCNc1nc2c(S(=O)(=O)c3ccc(Br)cc3)nnn2c2ccsc12 [Compound 2ct]	53	959	–	–	–	–
CCCCNc1nc2c(S(=O)(=O)c3ccc(Br)cc3)nnn2c2ccsc12 [Compound 2cu]	76	1900	–	–	–	–
CC(C)c1ccc(S(=O)(=O)c2nnn3c2nc(NCc2cccs2)c2sccc23)cc1 [Compound 3a, [3-(4-Isopropylbenzenesulfonyl)-thieno[2,3-e][1,2,3]triazolo[1,5-a]pyrimidin-5-yl]-thiophen-2-ylmethyl-amine]	–	125	–	<5	153	–
CC(C)c1ccc(S(=O)(=O)c2nnn3c2nc(NCc2ccco2)c2sccc23)cc1 [Compound 3b, Furan-2-ylmethyl-[3-(4-isopropyl-benzenesulfonyl)-thieno[2,3-e][1,2,3]triazolo[1,5-a]pyrimidin-5-yl]-amine]	–	–	–	>99	16600	–
O=S(=O)(c1ccc(C(F)(F)F)cc1)c1nnn2c1nc(NCc1cccs1)c1sccc12 [Compound 3c, Thiophen-2-ylmethyl-[3-(4-trifluoromethyl-benzenesulfonyl)-thieno[2,3-e][1,2,3]triazolo[1,5-a]pyrimidin-5-yl]-amine]	–	–	–	99	537	improved metabolic stability
O=S(=O)(c1ccc(OC(F)(F)F)cc1)c1nnn2c1nc(NCc1cccs1)c1sccc12 [Compound 3d, Thiophen-2-ylmethyl-[3-(4-trifluoromethoxy-benzenesulfonyl)-thieno[2,3-e][1,2,3]triazolo[1,5-a]pyrimidin-5-yl]-amine]	–	–	–	95	1120	improved metabolic stability
COc1ccc(CNc2nc3c(S(=O)(=O)c4ccc(C(C)C)cc4)nnn3c3ccsc23)cc1 [Compound 3e, [3-(4-Isopropyl-benzenesulfonyl)-thieno[2,3-e][1,2,3]triazolo[1,5-a]pyrimidin-5-yl]-(4-methoxy-benzyl)-amine]	–	–	–	7	5290	–
COc1ccc(S(=O)(=O)c2nnn3c2nc(NCc2cccs2)c2sccc23)cc1 [Compound 3f, [3-(4-Methoxy-benzenesulfonyl)-thieno[2,3-e][1,2,3]triazolo[1,5-a]pyrimidin-5-yl]-thiophen-2-ylmethyl-amine]	–	–	–	6	104	–
O=S(=O)(c1cccs1)c1nnn2c1nc(NCc1cccs1)c1sccc12 [Compound 3g, [3-(Thiophene-2-sulfonyl)-thieno[2,3-e][1,2,3]triazolo[1,5-a]pyrimidin-5-yl]-thiophen-2-ylmethyl-amine]	–	–	–	<5	196	–
O=S(=O)(c1ccc(F)cc1)c1nnn2c1nc(NCc1cccs1)c1sccc12 [Compound 3h, [3-(4-Fluoro-benzenesulfonyl)-thieno[2,3-e][1,2,3]triazolo[1,5-a]pyrimidin-5-yl]-thiophen-2-ylmethyl-amine]	–	–	–	27	468	–
O=S(=O)(c1ccc(Br)cc1)c1nnn2c1nc(NCc1cccs1)c1sccc12 [Compound 3i, [3-(4-Bromo-benzenesulfonyl)-thieno[2,3-e][1,2,3]triazolo[1,5-a]pyrimidin-5-yl]-thiophen-2-ylmethyl-amine]	–	–	–	60	32	improved metabolic stability
CC(C)c1ccc(S(=O)(=O)c2nnn3c2nc(NCc2cccc4ccccc24)c2sccc23)cc1 [Compound 3j, [3-(4-Isopropyl-benzenesulfonyl)-thieno[2,3-e][1,2,3]triazolo[1,5-a]pyrimidin-5-yl]-naphthalen-1-ylmethyl-amine]	–	–	–	45	> 2500	–

— patent publication US9303042B2, “Triazolothienopyrimidine compound inhibitors of urea transporters and methods of using inhibitors” (The Regents of the University of California, priority 2012, dated 2016)
